Experiments:
cancer = details: purified peptide given to cells in culture; cited from earlier work
HIV = details: purified peptide given to cells in culture; cited from earlier work
mammalian cells = details: cited from earlier work
bacteria = details: cited from earlier work
[1] = system: variety of tumour cell lines; details: cited from earlier work
MMTV LTR = assay: MMTV LTR-luciferase reporter supertransfected into cells carrying PreProCecropin or PreProMelittin; assay type: cell-based, Mouse Mammary Tumour Virus; details: two different MMTV LTRs; gene under control of an MLV promoter; FIGS. 13A-13B
From the text: A similar experiment to that of FIGS. 11 and 12 can be seen in FIGS. 13A–13B whereby two different MMTV LTR's controlling the expression of a luciferase reporter gene (Wintersberger et al., Proc. Natl. Acad. Sci. USA, 92:2745–2749) were separately supertransfected into cells carrying either PreProCecropin or PreProMelittin under control of an MLV promoter.

[2] = system: human bladder carcinoma derived cell line, EJ; assay: Tumorigenicity in nude mice of EJ cell clones carrying melittin or cecropin expression constructs; assay type: in vivo; details: EJ cell clones carrying the gene, injected into nude mice; FIGS. 9A-9G and 10A-10F
From the text: EJ cells were transfected with p125.CercA and the clones expressing neomycin resistance were isolated. Six clones were isolated: Cecropin A1.4, Cecropin A1.7, Cecropin A1.8, Cecropin A10.3, Cecropin A10.4, and Cecropin A10.8.
Similarly Ej cells were transfected with pBAGpMel and pBagppMel and the clones expressing neomycin resistance were isolated. Three clones containing the premelittin gene were isolated: Pre Melittin 1, Pre Melittin 4, and Pre Melittin 6. Two clones containing prepromelittin were isolated: Pre Pro Melittin 1, and Pre Pro Melittin 5.
The human bladder carcinoma derived cell line, EJ, gives tumours upon injection into immuno compromised nude mice which grow progressively larger (FIGS. 9A–9G). The stable clones of Ej cells carrying the melittin or cecropin expression constructs obtained as described above were tested for their tumorigenicity in nude ice.

HIV LTR = assay: HIV LTR-luciferase reporter (HIV-luc) supertransfected into EJ derived cell clones, with or without Tat; assay type: cell-based; details: in the presence of Tat, FIGS. 11 and 12
From the text: EJ derived cell clones carrying the melittin or cecropin expression vector or the parental. BAG vector, not carrying a therapeutic gene, were supertransfected with an indicator construct carrying the HIV LTR (and thus the HIV promoter) linked to a firefly luciferase reporter gene (HIV-luc) in the absence or presence of a separate construct expressing Tat. In the absence of Tat there was little luciferase activity detectable from the HIV-luc construct in all cell clones as expected since the HIV promoter requires Tat for its activity. […] Thus the production of HIV from infected cells will be inhibited by the antimicrobial peptide gene carrying therapeutic-retroviral vector. This effect is expected to lead to a lack of virus production from HIV infected cells.

Question: Which anti-cancer activity (cancer) does the source give for `CC[C@H](C)[C@H](NC(=O)CN)C(=O)NCC(=O)N[C@@H](C)C(=O)N[C@H](C(=O)N[C@@H](CC(C)C)C(=O)N[C@@H](CCCCN)C(=O)N[C@H](C(=O)N[C@@H](CC(C)C)C(=O)N[C@H](C(=O)N[C@H](C(=O)NCC(=O)N[C@@H](CC(C)C)C(=O)N1CCC[C@H]1C(=O)N[C@@H](C)C(=O)N[C@@H](CC(C)C)C(=O)N[C@H](C(=O)N[C@@H](CO)C(=O)N[C@@H](Cc1c[nH]c2ccccc12)C(=O)N[C@H](C(=O)N[C@@H](CCCCN)C(=O)N[C@@H](CCCNC(=N)N)C(=O)N[C@@H](CCCCN)C(=O)N[C@@H](CCCNC(=N)N)C(=O)N[C@@H](CCC(N)=O)C(=O)N[C@@H](CCC(N)=O)C(N)=O)[C@@H](C)CC)[C@@H](C)CC)[C@@H](C)O)[C@@H](C)O)C(C)C)C(C)C` [melittin] here?
Answer: selective anti-cancer

Question: What about the anti-HIV activity (HIV) of the same molecule?
Answer: anti-HIV activity

Question: Which “ill effects for mammalian cells” value (mammalian cells) does the source give for Cecropin A here?
Answer: without any apparent ill effects

Question: And the antibacterial activity (bacteria)?
Answer: specific antibacterial activity

Question: With Cecropin B as the molecule, how does the “anticancer activity against tumour cell lines” value [1] read?
Answer: anticancer activity

Question: What about the “ill effects for mammalian cells” value (mammalian cells) of the same molecule?
Answer: without any apparent ill effects

Question: And the antibacterial activity (bacteria)?
Answer: specific antibacterial activity

Question: Which “effect on expression from MMTV LTR luciferase reporter” value (MMTV LTR) does the source give for cecropin here?
Answer: downregulatory effect

Question: What about the “rate of tumour growth in mice” value [2] of the same molecule?
Answer: reduced rate of tumour growth

Question: And the “luciferase expression from HIV-luc” value (HIV LTR)?
Answer: little luciferase expression

Source: patent publication US7022319B1, “Vectors carrying therapeutic genes encoding antimicrobial peptides for gene therapy” (GSF - Forschungszentrum fuer Umwelt und Gesundheit GmbH, priority 1995, dated 2006)
